Assay results from patent US6130228A, “Polycyclic compounds” (priority 1995, dated 2000).
Read-outs that look alike come from different tables or passages of the source.

Key:
[1] = molecular target: T1, Acetylcholinesterase (AChE) (Rattus norvegicus, UniProt P37136); experiment: biochemical; assay type: biochemical, Male Rats (Sprague Dawley), brain
T1 construct: The brain was removed and homogenised; from tissue; host or cells: rat brain (male Sprague Dawley), Triton X100 detergent supernatant of the EDTA-buffer pellet
Protocol: (i) Enzyme Source for AChE
5 Male Rats (Sprague Dawley) weighing approx 250 g were killed by CO2 overdose and cervical dislocation.
The brain was removed and homogenised (9 strokes at 840 rpm with 4 volumes of phosphate buffer pH 7.4+10 mM (EDTA) and centrifuged at 27,000 g for 30 minutes.
The supernatant was discarded and the pellet resuspended in phosphate buffer with 10 mM EDTA+1- Triton X100 (2 ml/g wet weight). The crude homogenate was centrifuged at 27,000 g for 30-40 minutes.
The pellet was discarded and the supernatant was dispensed into 0.5 ml aliquots and stored at -20° C. until required.
Phosphate Buffer (0.1M. pH 7.4)
Made up to 500 ml with distilled H2 O, pH 7.4.
0.5 ml aliquots of brain (enzyme solution) as prepared above were thawed out. 2 ml of phosphate buffer was added to each aliquot. 2 ml of the enzyme solution was incubated with 2 ml PDS for 60 minutes at 0° C. The composition of blank, control and test solutions are given below:
0.9 ml phosphate buffer (0.1 M, pH 7.4)
0.85 ml phosphate buffer (0.1M, pH 7.4)
0.05 ml acetylthiocholine (5.2 mM)
(§1) 0.8 ml phosphate buffer (0.1M, pH 7.4)
0.05 ml Acetylthiocholine 5.2 mM
Change in absorbance was measured at 30 second intervals for 3 minutes at […]. The control was taken as 100%. Inhibitor was calculated as a percentage of the control. A graph of Log of inhibitor conc. versus % control was plotted and IC5. values calculated by interpolation.

5-HT (serotonin) uptake = assay type: biochemical, rat (Sprague Dawley)
Protocol: One male rat (Sprague Dawley) weighing approx. 200-250 g was sacrificed by cervical dislocation. The brain was dissected out and the cerebellum discarded. The brain was then weighed and 10 ml ice cold sucrose (0.32M) added per gram tissue. […] The pellet was discarded and the supernatant retained (crude synaptosomal preparation).
All tubes were set up in triplicate. […] 100 μl of the prepared synaptosomal preparation was added to each tube and incubated for 5 minutes in a shaking water bath at 37° C. Any reaction was stopped by plunging the tubes into an ice water bath. ^3 H NA (10^-7 M) or ^3 H 5-HT ([…]) was added to each tube and incubated for 5 minutes in a shaking water bath at 37° C. Any reaction was stopped by plunging the tubes into an ice-water bath. Accumulated monoamines were collected using a Brandell Cell Harvester under mild vacuum. Filters were rinsed (2×) using 4 ml of ice-cold 0.9% saline. Scintillation fluid was added (4 ml/tube). Radioactivity was measured on a scintillation counter.
Non-specific values were subtracted from total values. The control was taken as 100%. Drug effects were calculated as a percentage of control inhibitor value. A graph of log of drug concentration versus % control was plotted and IC50 values were calculated by interpolation.

[2] = molecular target: T2, Butyrylcholinesterase (BChE) (Equus caballus, UniProt P81908); experiment: biochemical; details: for IC50: Table 2
T2 construct: purchased Sigma c-7512
Protocol: The following components were utilised:
Phosphate Buffer (0.1M, pH 7.4)
Made up to 500 ml with distilled H2 O, pH 7.4
1 ml of enzyme solution (i), was incubated with 2 ml PDS for 60 minutes at 0° C.
Components of the assay blank, controls and test solutions are provided below:
0.9 ml phosphate buffer (0.1M, pH 7.4)
0.85 ml phosphate buffer (0.1 M, pH 7.4)
0.05 ml Acetylthiocholine (5.2 mM)
as §1
Control was taken as 100%. Inhibitor was calculated as a percentage of control. A graph of Log of inhibitor conc. versus % control was plotted and IC50 values calculated by interpolation.

[3] = Table 3, read-out: 5-HT UPTAKE INHIBITION

T1 sequence (P37136 32-614): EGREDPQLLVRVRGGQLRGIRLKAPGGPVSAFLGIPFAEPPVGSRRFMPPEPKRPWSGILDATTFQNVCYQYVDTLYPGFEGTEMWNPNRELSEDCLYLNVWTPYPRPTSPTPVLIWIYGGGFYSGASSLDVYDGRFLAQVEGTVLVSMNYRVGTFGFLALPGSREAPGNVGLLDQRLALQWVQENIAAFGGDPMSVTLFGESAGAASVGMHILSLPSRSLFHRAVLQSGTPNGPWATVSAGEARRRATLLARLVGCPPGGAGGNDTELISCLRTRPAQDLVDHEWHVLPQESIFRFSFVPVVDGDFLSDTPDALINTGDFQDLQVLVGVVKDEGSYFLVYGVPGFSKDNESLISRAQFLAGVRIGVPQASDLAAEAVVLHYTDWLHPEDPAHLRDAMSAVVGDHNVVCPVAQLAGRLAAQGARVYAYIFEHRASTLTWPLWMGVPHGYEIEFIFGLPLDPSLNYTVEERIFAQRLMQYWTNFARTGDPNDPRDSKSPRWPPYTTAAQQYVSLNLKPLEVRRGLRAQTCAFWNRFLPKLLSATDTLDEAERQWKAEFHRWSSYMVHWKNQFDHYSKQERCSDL
T2 sequence (P81908 whole entry): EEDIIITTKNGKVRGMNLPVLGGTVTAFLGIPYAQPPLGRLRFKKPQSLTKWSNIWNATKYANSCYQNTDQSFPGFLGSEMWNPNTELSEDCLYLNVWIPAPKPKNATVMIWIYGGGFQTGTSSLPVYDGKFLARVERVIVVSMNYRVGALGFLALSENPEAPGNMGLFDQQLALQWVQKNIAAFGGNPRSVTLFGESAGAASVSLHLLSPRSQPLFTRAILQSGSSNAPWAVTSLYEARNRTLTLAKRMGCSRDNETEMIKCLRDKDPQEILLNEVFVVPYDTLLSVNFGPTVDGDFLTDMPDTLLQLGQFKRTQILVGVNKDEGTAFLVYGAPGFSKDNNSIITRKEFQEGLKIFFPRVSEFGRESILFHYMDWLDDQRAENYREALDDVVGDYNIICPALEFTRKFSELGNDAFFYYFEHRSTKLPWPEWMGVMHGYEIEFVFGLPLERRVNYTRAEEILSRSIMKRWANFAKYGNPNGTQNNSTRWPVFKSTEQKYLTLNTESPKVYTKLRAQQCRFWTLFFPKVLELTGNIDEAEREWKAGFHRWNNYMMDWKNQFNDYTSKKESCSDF

SMILES | IC50 ([1]; Table 1, form BASE, ±SEM, n = 5, read-out: IC50 AChE) [µM] | IC50 (5-HT (serotonin) uptake; Table 1, form BASE, n = 5, read-out: IC50 5HT UPTAKE) [µM] | BChE TACRINE RATIO [2] | IC50 ([2]; read-out: BChE IC50) [µM] | AChE TACRINE RATIO [1] | IC50 ([1]; Table 2, read-out: AChE IC50) [µM] | 5-HT UPTAKE INHIBITION TACRINE RATIO (5-HT (serotonin) uptake) | IC50 (5-HT (serotonin) uptake; [3]) [µM] | IC50 ([2]; NB = No Block at 100 μM, read-out: BChE IC50 (no block)) [µM]
Nc1c2c(nc3ccccc13)CCCc1ccccc1-2 [Compound 7, 13-Amino 6.7 dihydro[1H] benz [7] annuleno [4,5-b]quinoline] | 38.2 | 0.02 | – | – | – | – | – | – | –
Nc1c2c(nc3cc(F)c(F)cc13)CCC2 [Compound 8, 9-amino-6,7-difluoro-2,3-dihydro-1H -cyclopenta [1,2-b] quinoline] | – | – | 0.003 | 10 | 2.229 | 0.035 | 3.800 | 2 | –
Nc1c2c(nc3cc(F)cc(F)c13)CCC2 [Compound 9, 9-Amino-6,8-difluoro-2.3-dihydro-1H -cyclopenta[1,2-b] quinoline] | – | – | 0.018 | 1.4 | 0.650 | 0.12 | 0.146 | 52 | –
Nc1c2c(nc3ccc(F)c(F)c13)CCC2 [Compound 10, 9-Amino-7,8-difluoro-2,3-dihydro-1-H-cyclopenta-[1,2-b] quinoline] | – | – | 0.002 | 15 | 0.190 | 0.41 | 0.029 | 260 | –
Nc1c2c(nc3cc(Cl)ccc13)CCC2 [Compound 17, 9-amino-6-chloro-2,3-dihydro-1H-cyclopenta[b] quinoline] | – | – | 0.19 | 0.13 | 8.041 | 0.01 | 5.067 | 1.5 | –
Nc1c2c(nc3ccc(F)cc13)CCCC2 [Compound 18, 9-Amino-7-fluoro-1,2,3,4-tetrahydro-acridine] | – | – | 0.061 | 0.41 | 0.390 | 0.2 | 3.304 | 2.3 | –
Cc1ccc(C)c2c(N)c3c(nc12)CCC3 [Compound 20, 9-Amino-5,8-dimethyl-2,3-dihydro-1H -cyclopenta [1,2-b] quinoline] | – | – | 0.018 | 1.4 | 0.041 | 1.9 | 1.949 | 3.9 | –
Cc1cccc2c(N)c3c(nc12)CCC3 [Compound 21, 9-Amino-5-methyl-2.3-dihydro-1H -cyclopenta[1,2-b] quinoline] | – | – | 0.002 | 13.8 | 0.024 | 3.3 | 0.633 | 12 | –
Cc1cc(C)c2nc3c(c(N)c2c1)CCC3 [Compound 23, 9-Amino-5-7-Dimethyl-2,3-dihydro-1H-cyclopenta [1,2-b] quinoline] | – | – | – | 52 | 0.004 | 19 | 0.962 | 7.9 | –
Cc1ccc2nc3c(c(N)c2c1)CCC3 [Compound 24, 9-Amino-7-methyl-2,3-dihydro-1H-cyclopenta [1,2-b] quinoline] | – | – | 0.023 | 1.1 | 0.012 | 6.7 | 0.447 | 17 | –
Nc1c2c(nc3ccc(Br)cc13)CCC2 [Compound 25, 9-Amino-7-bromo-2,3-dihydro-1H-cyclopenta-[1,2-b] quinoline] | – | – | 0.013 | 1.9 | 0.008 | 10 | 1.434 | 5.3 | –
Cc1ccc2c(N)c3c(nc2c1C)CCC3 [Compound 26, 9-Amino-5,6-dimethyl-2,3-dihydro-1H-cyclopenta [1,2-b] quinoline] | – | – | 0.003 | 9.2 | 0.007 | 11.6 | 1.727 | 4.4 | –
Nc1c2c(nc3ccc(F)cc13)-c1ccccc1CC2 [Compound 27, 7-Amino-9-fluoro-5,6-dihydrobenz[c] acridine] | – | – | – | – | 0.004 | 18 | 2.171 | 3.5 | > 100
Nc1c2c(nc3c(F)ccc(F)c13)CCC2 [Compound 31, 9-Amino-5,8-difluoro-2,3-dihydro-1H-cyclopenta[1.2b] quinoline] | – | – | 0.005 | 4.8 | 0.166 | 0.47 | – | – | –
Nc1c2c(nc3c(F)cc(F)cc13)CCC2 [Compound 32, 9-Amino-5,7-difluoro-2.3dihydro-1H-cyclopenta[1,2b]quinoline] | – | – | 0.003 | 8.8 | 0.144 | 0.54 | – | – | –
Nc1c2c(nc3ccccc13)Cc1ccccc1CC2 [Compound 33, 13-amino 1,2-dihydro [1H] benz [7] annuleno [2,3-b] quinoline] | – | – | – | – | 0.002 | 36 | 0.400 | 18 | –
Nc1c2c(nc3ccc(F)cc13)-c1ccccc1C2 [Compound 34, 6-Amino-8-Fluoro-4,5-benzo-[5H]-cyclopenta-[1,2-b]-quinoline] | – | – | – | – | 0.030 | 2.9 | 0.400 | 18 | –
Nc1c2c(nc3ccc(Cl)cc13)-c1ccccc1C2 [Compound 35, 6-Amino-8-chloro-4,5-benzo-[5H]-cyclopenta-[1,2-b]-quinoline] | – | – | – | – | – | > 100 | 0.070 | 114 | –
COc1ccc2nc3c(c(N)c2c1)Cc1ccccc1-3 [Compound 36, 6-Amino-8-methoxy-4,5-benzo-[5H]-cyclopenta-[1,2-b]-quinoline] | – | – | – | – | 0.002 | 47 | 0.300 | 29 | –
